In patent US5869515A, “1,3-dihydro-2H-imidazol-2-one compounds” (Janssen Pharmaceutica N.V., priority 1995, dated 1999):

Each compound was assayed against T1, recombinant human MNL phosphodiesterase type IV B (Homo sapiens, UniProt Q07343) (assay: Inhibition of Recombinant Human Mononuclear Lymphocyte (MNL) Phosphodiesterase Type IV B Produced in Insect Cells with a Baculovirus Vector). Conditions: 0.8 μM 3H-cAMP, pH 8, 10 min, 37° C., 1% DMSO; read-out: IC50 value, recombinant human MNL phosphodiesterase PDE IV B.
T1 construct: made in house
Format: biochemical
Procedure: Inhibition of Recombinant Human Mononuclear Lymphocyte (MNL) Phosphodiesterase Type IV B Produced in Insect Cells with a Baculovirus Vector The alleviating and/or curing effect of the instant compounds on allergic and atopic diseases was assessed by an in vitro assay system to detect an inhibiting effect on the recombinant human MNL phosphodiesterase type IV B. Seventy-two hours after infection with recombinant baculovirus, the insect cells were harvested and pelleted at 500 g for 5 minutes. The cells were lysed in 10 ml lysis-buffer consisting of 20 mM Tris, 10 mM EGTA, 2 mM Na2 EDTA, 1% Triton-X-100, 1 mM Na3 VO4, 10 mM NaF, 2 μg/ml of leupeptine, pepstatine and aprotinine, 0.3 μg/ml benzamidine and 100 μg/ml TPCK pH 7.5. After 5 minutes on ice, solubilized cells were centrifuged at 4000 rpm for 15 minutes at 4° C. The resulting supernatant was filtered through a 0.45 μm filter (Millipore) and brought to TBS buffer (50 mM Tris, 150 mM NaCl pH 7.4). […] The inhibiting effect of the present compounds on recombinant human MNL phosphodiesterase PDE IV B was measured at different concentrations of the instant compounds. The IC50 values (expressed in M) were calculated graphically from the thus obtained inhibition values.

T1 sequence (Q07343 1-564 isoform Q07343-2): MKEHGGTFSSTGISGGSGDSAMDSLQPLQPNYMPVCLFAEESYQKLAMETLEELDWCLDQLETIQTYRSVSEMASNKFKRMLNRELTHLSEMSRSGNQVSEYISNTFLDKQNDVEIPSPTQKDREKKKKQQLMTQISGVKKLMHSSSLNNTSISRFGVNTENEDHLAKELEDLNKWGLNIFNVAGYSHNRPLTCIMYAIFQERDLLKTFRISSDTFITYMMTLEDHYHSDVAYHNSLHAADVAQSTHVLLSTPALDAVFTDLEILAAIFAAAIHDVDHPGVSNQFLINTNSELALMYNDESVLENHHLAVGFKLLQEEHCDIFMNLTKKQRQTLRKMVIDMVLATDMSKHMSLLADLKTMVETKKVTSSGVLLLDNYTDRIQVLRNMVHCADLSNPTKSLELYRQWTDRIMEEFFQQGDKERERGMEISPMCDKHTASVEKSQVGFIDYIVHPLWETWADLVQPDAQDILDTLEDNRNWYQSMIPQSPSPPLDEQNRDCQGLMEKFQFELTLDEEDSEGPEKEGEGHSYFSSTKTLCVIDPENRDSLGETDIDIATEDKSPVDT

Question: With C=C(Cn1cc[nH]c1=O)c1ccc(OC)c(OC2CCCC2)c1 [Compound 4, 1-[2-[3-(cyclopentyloxy)-4-methoxy-phenyl]-2-propenyl]-1,3-dihydro-2H-imidazol-2-one] as the compound, how does the IC50 read?
Answer: The IC50 was under 1000 nM.

Question: COc1ccc(C(=O)Cn2ccnc2O)cc1OC1CCCC1 [Compound 1, 1-[2-[3-(cyclopentyloxy)-4-methoxyphenyl]-2-oxoethyl]-1,3-dihydro-2H-imidazol-2-one] was tested. Which IC50 did it give?
Answer: Its IC50 is under 1000 nM.

The compounds below were run on dextran-induced oedema formation in mouse ear (assay: Dextran-Induced Oedema Formation in Mouse Ear). Conditions: oral, mice, 1 h before i.v. dextran T500 and pontamine sky-blue, compared with background extravasation, read-out: % inhibition of the extravasation of the dye.
Format: in vivo, male Swiss mice
Procedure: Dextran-Induced Oedema Formation in Mouse Ear
Systemic injection of dextran T500 in normal, non-sensitized mice elicits increased vascular permeability, leading to extravasation and oedema of the extremities. When dextran is injected together with a blue dye, blueing of the ears is the most prominent feature of oedematous response.
Male Swiss mice weighing 24-26 g were orally pretreated with the test compound dissolved in PEG-200 at different concentrations or solvent. One hour later, the mice were given an intravenous injection with an isotonic saline solution containing 12 mg/ml dextran T500 and 2.6 mg/ml pontamine sky-blue dye, in a volume of 0.1 ml per 10 g body weight. One hour and forty-five minutes later, the animals are sacrificed by ether and their ears removed. Extraction and quantification of the extravasated dye is done as described by Van Wauwe and Goossens (Drug Dev. Res. 1986, 8, 213-218).
The extravasation of the dye is characterized by the blueing value which is defined as the concentration of the extracted dye in both ears. The background blueing value was determined once as the mean blueing value obtained by injecting a group of mice with a saline solution containing only dextran T500 and the blue dye. Table 2 lists the percentage inhibition of the extravasation of the dye when compared with the background extravasation of the dye when the test compound was administered at a dose of 5 mg/kg.

Question: Which inhibition in vivo at 5 mg/kg does the source give for COc1ccc(C(=O)Cn2ccn(C(c3ccccc3)c3ccccc3)c2=O)cc1OC [Compound 11] here?
Answer: Its inhibition in vivo at 5 mg/kg is 34.6%.

Question: COc1ccc(/C(=C\C#N)CN2CCNC2=O)cc1OC [Compound 9, (E)-3-(3,4-dimethoxyphenyl)-4-(2-oxo-1-imidazolidinyl)-2-butenenitrile] was tested. Which inhibition in vivo at 5 mg/kg did it give?
Answer: The inhibition in vivo at 5 mg/kg was 53.8%.

Question: Which inhibition in vivo at 5 mg/kg does the source give for COc1ccc(Cn2ccn(CC(=O)c3ccc(OC)c(OC4CCCC4)c3)c2=O)cc1 [Compound 10, 1-[2-[3-(cyclopentyloxy)-4-methoxyphenyl]-2-oxoethyl]-1,3-dihydro-3-[(4-methoxyphenyl)methyl]-2H-imidazol-2-one] here?
Answer: Its inhibition in vivo at 5 mg/kg is 56%.

Question: For COc1ccc(C(=O)CN2CCNC2=O)cc1OC [Compound 7, 1-[2-(3,4-dimethoxyphenyl)-2-oxoethyl]-2-imidazolidinone], which inhibition in vivo at 5 mg/kg is on record?
Answer: The inhibition in vivo at 5 mg/kg was 22.6%.

Question: Which inhibition in vivo at 5 mg/kg does the source give for CCOC(=O)n1ccn(CC(=O)c2ccc(OC)c(OC3CCCC3)c2)c1=O [Compound 2, ethyl 3-[2-[3-(cyclopentyloxy)-4-methoxphenyl]-2-oxoethyl]-2,3-dihydro-2-oxo-1H-imidazole-1-carboxylate] here?
Answer: The inhibition in vivo at 5 mg/kg was 55.6%.

Question: CCOC(=O)N1CCN(CC(=O)c2ccc(OC)c(OC)c2)C1=O [Compound 15] was tested. Which inhibition in vivo at 5 mg/kg did it give?
Answer: The inhibition in vivo at 5 mg/kg was 19.2%.

Question: Which inhibition in vivo at 5 mg/kg does the source give for COc1ccc(C(=O)CN2CCN(C3CCCCO3)C2=O)cc1OC (racemic) [Compound 8, (±)-1-[2-(3,4-dimethoxyphenyl)-2-oxoethyl]-3-(tetrahydro-2H-pyran-2-yl)-2-imidazolidinone] here?
Answer: The inhibition in vivo at 5 mg/kg was 5.2%.

Question: COc1ccc(C(=O)Cn2ccn(Cc3ccccc3)c2=O)cc1OC [Compound 5, 1-[2-(3,4-dimethoxyphenyl)-2-oxoethyl]-1,3-dihydro-3-(phenylmethyl)-2H-imidazol-2-one] was tested. Which inhibition in vivo at 5 mg/kg did it give?
Answer: The inhibition in vivo at 5 mg/kg was 28.7%.

Question: With COc1ccc(C(=O)CN2CCNC2=O)cc1OC1CCCC1 [Compound 13] as the compound, how does the inhibition in vivo at 5 mg/kg read?
Answer: Its inhibition in vivo at 5 mg/kg is 27.9%.

Question: For COc1ccc(Cn2ccn(CC(=O)c3ccc(OC)c(OC)c3)c2=O)c(OC)c1 [Compound 12], which inhibition in vivo at 5 mg/kg is on record?
Answer: Its inhibition in vivo at 5 mg/kg is 26.4%.

Question: How did the inhibition in vivo at 5 mg/kg turn out when COc1ccc(C(=O)Cn2ccnc2O)cc1OC1CCCC1 [Compound 1, 1-[2-[3-(cyclopentyloxy)-4-methoxyphenyl]-2-oxoethyl]-1,3-dihydro-2H-imidazol-2-one] was run?
Answer: The inhibition in vivo at 5 mg/kg was 48.3%.
